# Experimental data published in patent publication US20200181597A1, “Composition and Application of Arginine-depleting Agents for Cancer, Obesity, Metabolic Disorders, and Related Complications and Comorbidities” (THE HONG KONG POLYTECHNIC UNIVERSITY, priority 2018, published 2020).
# How the values were obtained:
# [1] = system: mouse 3T3-L1 preadipocytes; test: 3T3-L1 preadipocyte differentiation (oil red O, qRT-PCR); format: cell-based; conditions: for adipogenesis and lipogenesis in 3T3-L1 cells (oil red O): added to culture medium, 6 days of differentiation
# Description: FIG. 23 illustrates that arginine depletion by adding N-ABD094-rhArg (SEQ ID NO: 50) (rhArg), bovine arginase or native arginine deiminase (ADI) to the culture medium, or using arginine-free medium inhibited the differentiation of mouse 3T3-L1 preadipocytes into adipocytes. […] (*The culture medium contains 0.4 mM L-arginine and can be converted into 0.4 mM L-ornithine and 0.4 mM urea by arginase, or 0.4 mM L-citrulline by ADI.). Cells grown in culture medium without addition of arginine depleting agents or metabolic products of arginase/ADI served as the control. Lipids in cells were stained with oil red O at 6 days after exposure to specific differentiation-inducing factors added to the medium.
# FIG. 24 illustrates that N-ABD094-rhArg (SEQ ID NO: 50) could suppress adipogenic and lipogenic genes in 3T3-L1 preadipocytes. Mouse 3T3-L1 preadipocytes were cultured for 6 days in medium supplemented with specific factors to induce differentiation into adipocytes (differentiated). Cells grown in medium without these factors remained undifferentiated. The medium was added with 2U/mL N-ABD094-rhArg (SEQ ID NO: 50) (rhArg). Cells grown in medium without the addition of N-ABD094-rhArg served as the control. The mRNA expression levels of several crucial (A) transcriptional regulators of adipogenesis, and (B) enzymes in lipogenic pathways were determined by real-time qRT-PCR, and expressed relative to the undifferentiated (control) group, which is set as 1. *P<0.05, one-way ANOVA followed by Fisher's LSD. Data are expressed as mean±SEM, n=3 for each group.
# FIG. 25 illustrates the response of 3T3-L1 preadipocytes to various concentrations of arginine Mouse 3T3-L1 preadipocytes were cultured in arginine-free medium with or without addition of varying concentrations of L-arginine for 6 days. Cells cultured in normal arginine-containing medium supplemented with differentiation inducing factors served as the positive (+ve) control of differentiation, while cells cultured in normal arginine-containing medium without supplementation of differentiation inducing factors served as the negative (−Ve) control of differentiation. One group of cells was cultured in normal arginine-containing medium supplemented with differentiation inducing factors and treated with 5U/mL N-ABD094-rhArg (SEQ ID NO: 50) (rhArg) to inhibit differentiation. (A) Cells were stained for lipids with oil red O, and staining intensity was quantified by measuring optical density, which is expressed as the percentage against the +ve control group. (B) The mRNA levels of several crucial lipogenesis related genes are expressed relative to cells cultured in arginine-free medium, which is set as 1. Data are expressed as mean±SEM, n=3 for each group.
# To test the effect of N-ABD094-rhArg (SEQ ID NO: 50) on fat cells, mouse 3T3-L1 preadipocytes were used, which are commonly employed as cell-based model for studying adipogenesis [Green and Meuth, 1974, Cell 3:127-133].
# circulating arginine = conditions: i.p., cited from earlier work
molecule,measurement,setting,value
N=C(N)NCCC[C@H](N)C(=O)O [L-arginine],"threshold concentration for activation of Cebpa, Pparg and Scd1","[1]; arginine-free medium supplemented with L-arginine, 6 days",10 to 40 µM
NCCC[C@H](N)C(=O)O [L-ornithine],adipogenesis and lipogenesis in 3T3-L1 cells (oil red O),[1],could not inhibit
NC(N)=O [urea],adipogenesis and lipogenesis in 3T3-L1 cells (oil red O),[1],could not inhibit
NC(=O)NCCC[C@H](N)C(=O)O [L-citrulline],adipogenesis and lipogenesis in 3T3-L1 cells (oil red O),[1],could not inhibit
"PEGylated rhArg (conjugate, UniProt P05089 1-322, looked up, PEGylated) Arginase-1: MSAKSRTIGIIGAPFSKGQPRGGVEEGPTVLRKAGLLEKLKEQECDVKDYGDLPFADIPNDSPFQIVKNPRSVGKASEQLAGKVAEVKKNGRISLVLGGDHSLAIGSISGHARVHPDLGVIWVDAHTDINTPLTTTSGNLHGQPVSFLLKELKGKIPDVPGFSWVTPCISAKDIVYIGLRDVDPGEHYILKTLGIKYFSMTEVDRLGIGKVMEETLSYLLGRKKRPIHLSFDVDGLDPSFTPATGTPVVGGLTYREGLYITEEIYKTGLLSGLDIMEVNPSLGKTPEEVTRTVNTAVAITLACFGLAREGNHKPIDYLNPPK",time circulating arginine below detection limit (3 μM),"circulating arginine; 1,500 U per rat (6 U/g)",6 days
"native rhArg: native recombinant human arginase (Tsui et al.) (protein, UniProt P05089 1-322, looked up) Arginase-1: MSAKSRTIGIIGAPFSKGQPRGGVEEGPTVLRKAGLLEKLKEQECDVKDYGDLPFADIPNDSPFQIVKNPRSVGKASEQLAGKVAEVKKNGRISLVLGGDHSLAIGSISGHARVHPDLGVIWVDAHTDINTPLTTTSGNLHGQPVSFLLKELKGKIPDVPGFSWVTPCISAKDIVYIGLRDVDPGEHYILKTLGIKYFSMTEVDRLGIGKVMEETLSYLLGRKKRPIHLSFDVDGLDPSFTPATGTPVVGGLTYREGLYITEEIYKTGLLSGLDIMEVNPSLGKTPEEVTRTVNTAVAITLACFGLAREGNHKPIDYLNPPK",circulating arginine within 3 hour of injection,"circulating arginine; 7,500 U/rat",~20 µM
same,time for arginine to return to basal level post-injection,"circulating arginine; 7,500 U/rat",~2 days
